Data reported in US20190353647A1, “NOVEL REAL-TIME MULTIPLEXED, MULTI-COLOR BIOLUMINESCENCE RESONANCE ENERGY TRANSFER ASSAY, APPARATUS, AND USES THEREOF” (Universite de Bordeaux, priority 2016, published 2019).

Target: T1, TRPV1 (Homo sapiens, UniProt Q8NER1)
T1 construct: expressed in transfected cells; host or cells: HEK293T
Test: Intramolecular BRET assay, YFP-TRPV1-Luc probe in HEK293T cells
Format: cell-based
Conditions: for Effect on CAPS-induced BRET increase: intramolecular test
Text: They were referred as YFP and Luc for short in the rest of the manuscript. The cDNA of Luc and YFP were first cloned together using a three-piece ligation in the BamHI/XhoI site of pcDNA3.1(+) (Invitrogen, Carlsbad, Calif., USA), yielding two expression vectors pcDNA3.1 YFP-Luc where YFP was cloned in-fusion at the N-terminal of Luc, and pcDNA3.1 Luc-YFP where Luc was cloned in-fusion at the N-terminal of YFP. Both YFP and Luc were amplified by PCR from the pcDNA3-YFP-EPAC-Luc vector. Luc was cloned either at the N-terminal of YFP as a HindIII-EcoRI fragment (primers used: “Luc_HindIII_ATGN-term sense” and “Luc_no Stop_EcoRI_N-term antisense”) or at the COOH-terminal of YFP as an EcoRI-XhoI fragment (primer used: “Luc_EcoRI_ATG_C-term sense” and “Luc_XhoI_Stop_C-term antisense”). In parallel, YFP was cloned either at the N-terminal of Luc as a HindIII-EcoRI fragment (primers used: “YFP_HindIII_ATG_N-term sense” and “YFP_no Stop_EcoRI_N-term antisense”) or at the COOH-terminal of Luc as a EcoRI-XhoI fragment (primer used: “YFP_EcoRI_ATG_C-term sense” and “YFP_XhoI_Stop_C-term antisense”). The sequence joining Luc and YFP sequence encoded […] NO: 18) as a linker, and contained an AgeI restriction site. The YFP-hTRPV1-Luc expression vector was obtained by subcloning the human TRPV1 cDNA from the pDONR201-hTRPV1 vector (Harvard Medical School PlasmID Repository, clone HsCD00081472) as an EcoRI PCR fragment in the EcoRI site of the vector pcDNA3.1 YFP-Luc (primer used: “hTRPV1_EcoRI_Fus_Sense” and “hTRPV1_EcoRI_Fus_antisense”). The hTRPV1-Luc expression vector was obtained by subcloning the cDNA of hTRPV1 as a HindIII-EcoRI fragment in place of the YFP in the HindIII-EcoRI site of the pcDNA3.1 YFP-Luc vector (primer used: “hTRPV1_HindIII_ATG_Sense” and “hTRPV1_EcoRI_Fus_antisense”). The Luc-hTRPV3 expression vector was obtained by subcloning the cDNA of hTRPV3 (Harvard Medical School PlasmID Repository, clone HsCD00341603) as a AgeI-XhoI fragment in place of the YFP in the AgeI-XhoI sites of the pcDNA3.1 Luc-YFP vector (primer used: “hTRPV3_AgeI_ATG_Sense” and “[…]_XhoI_antisense”). The hTRPV4-Luc expression vector was obtained by subcloning the cDNA of hTRPV4 as a BamHI-AgeI fragment in place of the YFP in the BamHI-AgeI site of the pcDNA3.1 YFP-Luc vector (primer used: “hTRPV4_BamHI_ATG_Sense” and hTRPV4_AgeI_Fus_antisense”). In each case, the sequence joining the cDNA of interest and either Luc or YFP sequence encoded […] NO: 18) as a linker. HEK293T cells were maintained in Dulbecco's modified Eagle's medium-high Glucose (DMEM) (D6429, Sigma) supplemented with 10% fetal bovine serum, 100 units mL-1 penicillin and streptomycin. Twenty-four hours before transfection, cells were seeded at a density of 500,000 cells in 6-well dishes. Transient transfections were performed using polyethylenimine (PEI, linear, Mr 25,000; catalogue number 23966 Polysciences, Inc., Warrington, Pa., USA) with a PEI:DNA ratio of 4:1. […] The amount of transfected DNA was completed to a total of 2 μg with pcDNA3.1 empty vector. After overnight incubation, transfected cells were then detached, resuspended in DMEM w/o red phenol (Ref 21063-029, ThermoFisher scientific, Waltham, Mass., USA) and replated at a density of 10^5 cells per well in 96-well white plates with clear bottoms (Greiner Bio one, Courtaboeuf, France) pre-treated with D-polylysine (Sigma) for reading with the Tristar2 luminometer (Berthold Technologies, Bad Wildbad, Germany) or onto 12 mm diameter glass coverslips ([…], Braunschweig, Germany) treated with poly-L-lysine for the reading with the SpectraPro 2300i spectrometer (Acton Optics, Acton, Mass., USA). Cells were left in culture for 24 h before being processed for the BRET assay.

[1] = temperature rise from 25 to 42° C.

T1 sequence (Q8NER1 whole entry): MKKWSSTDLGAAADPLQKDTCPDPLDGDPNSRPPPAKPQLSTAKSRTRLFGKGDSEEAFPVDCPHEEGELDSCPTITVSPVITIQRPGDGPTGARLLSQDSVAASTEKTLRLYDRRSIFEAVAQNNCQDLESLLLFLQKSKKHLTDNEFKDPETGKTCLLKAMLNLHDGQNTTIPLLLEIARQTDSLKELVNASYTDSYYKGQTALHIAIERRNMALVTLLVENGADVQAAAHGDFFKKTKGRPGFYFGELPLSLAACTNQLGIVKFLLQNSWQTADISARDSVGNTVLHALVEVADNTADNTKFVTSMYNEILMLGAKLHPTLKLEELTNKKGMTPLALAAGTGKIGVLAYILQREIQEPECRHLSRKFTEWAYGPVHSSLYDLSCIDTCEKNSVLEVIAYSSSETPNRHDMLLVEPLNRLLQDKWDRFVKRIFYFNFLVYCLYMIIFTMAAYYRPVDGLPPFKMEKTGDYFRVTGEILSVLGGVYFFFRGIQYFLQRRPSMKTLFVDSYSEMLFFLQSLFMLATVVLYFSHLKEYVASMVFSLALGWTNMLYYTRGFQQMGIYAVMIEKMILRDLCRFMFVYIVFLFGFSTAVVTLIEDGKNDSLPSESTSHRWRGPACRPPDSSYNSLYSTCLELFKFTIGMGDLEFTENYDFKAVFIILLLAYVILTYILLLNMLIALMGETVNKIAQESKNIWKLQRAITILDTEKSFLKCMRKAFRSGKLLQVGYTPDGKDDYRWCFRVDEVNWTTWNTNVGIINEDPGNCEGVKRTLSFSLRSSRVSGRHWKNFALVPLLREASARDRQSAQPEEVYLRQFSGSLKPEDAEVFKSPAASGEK

| Effect on CAPS-induced BRET increase | Change of basal BRET signal | Change in CAPS potency on temperature rise [1] | Change in maximal efficacy on temperature rise [1] | SMILES | Temperature-dependent behaviour of the probe after preincubation (heating 25 to 50° C.) |
| --- | --- | --- | --- | --- | --- |
| inhibited | – | – | – | CC(=O)Nc1nc2c(Oc3cc(-c4ccc(C(F)(F)F)cc4)ncn3)cccc2s1 [AMG517] | – |
| – | increased with a first order kinetic | leftward shift | increase | COc1cc(CNC(=O)CCCC/C=C/C(C)C)ccc1O [CAPS, Capsaicin] | – |
| inhibited | – | – | – | Oc1cc2c(cc1O)CN(C(=S)NCCc1ccc(Cl)cc1)CCC2 [CPZ, Capsazepine] | completely modified the temperature-dependent behaviour |
